# How the values were obtained:
# [1] = system: ZW658 strain; assay: 1-liter fermentor, ZW658 on high concentration glucose and xylose with sorbitol or glutamate; assay type: cell-based, Zymomonas mobilis
# Method: (§1) Approximately 1 ml of well mixed sample was obtained from flask or fermentor. First the sample absorbance was measured directly with a spectrophotometer (Amersham Biosciences Ultrospec 3300pro, GE Healthcare, Piscataway, N.J., USA). If the reading was lower than 0.6 unit, no dilution was needed. If the reading was higher than 0.6 unit, the sample was diluted with culture medium until the actual reading was in the range of 0.1 to 0.6 unit. The original OD was calculated from the dilution ratio and the actual reading.
# (§2) The analysis of sugars, acetate, ethanol, and other by-products was done with an Agilent 1100 series HPLC and Agilent ChemStation software for LC 3D. The column was BioRad Aminex HPX-87H(HPLC Organic Analysis Column 125-0140) with BioRad Micro-Guard Cartridge Cation-H (125-0129). The operating conditions were:
# (§3) Glycerol stock of seed frozen at −80° C. was thawed, then inoculated into sterile culture tubes with mixture of 60 g/L glucose, 20 g/L xylose, 10 g/L yeast extract (YE), 10 g/L KH2PO4, 2 g/L (NH4)2SO4, and 1 g/L MgSO4. Initial pH was adjusted to 5.5 with 4 N KOH. This revival culture was grown statically overnight at 37° C. It was transferred into shake flasks with 75 g/L glucose, 25 g/L xylose, 10 g/L yeast extract (YE), 10 g/L KH2PO4, 2 g/L (NH4)2SO4, and 1 g/L MgSO4. Initial pH was adjusted to 5.5 with 4 N KOH. Growth was monitored by measuring OD600. When the OD reached approximately 5, a certain volume of the seed was withdrawn into a sterile syringe for inoculation.
# In a sterilized 1-liter fermentor (BIOSTAT® B-DCU system, Sartorius BBI System Inc., Bethlehem, Pa., USA), 50 ml of ZW658 strain seed culture at Optical Density of approximately 5 (measured at 600 nm) was inoculated into 450 ml of aqueous solution containing sugars and medium. The final mixed broth contained 100 g/L glucose, 85.1 g/L xylose, 10 g/L yeast extract (YE), 2 g/L KH2PO4, and 10 mM sorbitol. pH was adjusted to 5.5 with 4 N KOH solution. Mixing speed was set at 150 rpm. Fermentation was conducted at 33° C. and pH 5.5. Samples were taken periodically. Samples were filtered through 0.22 micron filters, and the filtrates were analyzed by HPLC as described in General Methods for compounds including glucose, xylose, ethanol, and acetate. Samples were also diluted with medium (as described in General Methods) and the OD600 was measured to monitor cell growth. […] The by-product xylitol concentration was 0.67 g/L at 29 hr, and increased to 0.95 g/L at 64 hr.
# In a sterilized 1-liter fermentor (BIOSTAT® B-DCU system, Sartorius BBI System Inc., Bethlehem, Pa., USA), 50 ml of ZW658 strain seed culture at OD600 of approximately 5 was inoculated into 450 ml of aqueous solution containing sugars and medium. The final mixed broth contained 98.0 g/L glucose, 81.2 g/L xylose, 10 g/L yeast extract (YE), 2 g/L KH2PO4, and 10 mM potassium glutamate. pH was adjusted to 5.5 with 4 N KOH solution. Mixing speed was set at 150 rpm. Fermentation was conducted at 33° C. and pH 5.5. Samples were taken periodically. Samples were filtered through 0.22 micron filters, and the filtrates were analyzed by HPLC as described in General Methods for compounds including glucose, xylose, xylitol, ethanol, and acetic acid. Samples were also diluted with medium (as described in General Methods) and the OD600 was measured to monitor cell growth. […] However, xylose was not well-utilized, cell growth and ethanol production were reduced as compared to that in the presence of sorbitol (Example 4), and xylitol production increased.
# [2] = system: ZW658 strain; assay: Flask fermentation of ZW658 on high concentration glucose or xylose alone with sorbitol; assay type: cell-based, Zymomonas mobilis; conditions: for OD600: after 48 hours, 33° C.; for ethanol production rate: 20 mM sorbitol vs no sorbitol
# Method: as §1, §2, §3
# In four sterilized 125 ml Erlenmeyer culture flasks (Cat. No. 30180-036, VWR International, USA), 10 ml of ZW658 strain seed culture at OD600 of approximately 5 was inoculated into each flask with 100 ml of aqueous solution containing 10 g/L yeast extract (YE), 2 g/L KH2PO4, 4 g/L KHCO3. Before inoculation, the first flask also contained 200 g/L glucose and 20 mM sorbitol, comparing to the second flask with 200 g/L glucose only. The third flask contained 200 g/L xylose and 20 mM sorbitol, comparing to the fourth flask with 200 g/L xylose only. After inoculation, sugar concentrations were diluted to about 180 g/L. Initial pH was adjusted to 5.5 with 4 NH3PO4 solution. Mixing speed was set at 150 rpm. Fermentation was conducted at 33° C. and pH was not controlled. Samples were taken periodically. Samples were filtered through 0.22 micron filters, and the filtrates were analyzed by HPLC as described in General Methods for compounds including glucose, xylose, ethanol, and xylitol. Samples were diluted with medium (as described in General Methods) and the OD600 was measured to monitor cell growth. […] After 48 hours, the OD600 were 9.94, 6.46, 5.37 and 5.45, respectively, for the first, second, third, and fourth flask.
# [3] = after 29 hours, 100 g/L glucose, 85.1 g/L xylose, 10 mM sorbitol, 33° C., pH 5.5
compound,measurement,setting,value
OC[C@@H](O)[C@@H](O)[C@H](O)[C@@H](O)CO [sorbitol],OD600 cells grew to,"[1]; 100 g/L glucose, 85.1 g/L xylose, 10 mM sorbitol, 33° C., pH 5.5",13
same,reduction of xylitol with addition of sorbitol,"[1]; Examples 4 and 5, with vs without sorbitol",about 3 fold
same,ethanol concentration,[1]; [3],83.9 g/L
same,glucose concentration,[1]; [3],0 g/L
same,xylose concentration,[1]; [3],2.08 g/L
same,by-product xylitol concentration,"[1]; at 29 hr, 10 mM sorbitol",0.67 g/L
same,by-product xylitol concentration,"[1]; at 64 hr, 10 mM sorbitol",0.95 g/L
same,time to complete utilization of 85 g/L xylose,"[1]; sugars mixture with 100 g/L glucose, no acetate, in the presence of sorbitol",≤ 30 h
same,effect on growth,[1]; with vs without 10 mM sorbitol,doubled the growth
same,effect on lag time,[1]; with vs without 10 mM sorbitol,significantly reduced the lag time
same,OD600,"[2]; 200 g/L glucose (about 180 g/L after inoculation), 20 mM sorbitol",9.94
same,OD600,"[2]; 200 g/L xylose (about 180 g/L after inoculation), 20 mM sorbitol",5.37
same,ethanol production rate,[2]; glucose culture,more rapid
same,xylitol production,"[2]; glucose only or xylose only cultures, 20 mM sorbitol",No xylitol was produced
same,effect on growth,"[2]; high concentration glucose culture, 20 mM sorbitol",significantly stimulated growth
same,effect on growth,"[2]; high concentration xylose culture, 20 mM sorbitol",almost no effect on growth
same,ethanol production rate,[2]; xylose only culture,at the same rate with and without sorbitol
